Data taken from patent US12709592B2, “Salts of treprostinil” (United Therapeutics Corporation, priority 2013, dated 2026).
Counter-ions that a name gives are not always drawn.

Assay: TGA data of UT-15 salts (thermal degradation)
Assay type: physicochemical
Conditions: thermogravimetric analysis of the isolated solid salt; temperature beyond which weight loss due to degradation occurs
Text: For all new UT-15 salts, analytical data: IH-NMR, 13C_NMR, IR, purity by HPLC, DSC data, TGA data, water contents, specific rotation were collected.

Compound | TGA: loss due to degradation beyond
CCCCC[C@H](O)CC[C@@H]1[C@H]2Cc3cccc(OCC(=O)O)c3C[C@H]2C[C@H]1O [Arginine Salt] | Moisture = 2.07, degradation beyond 200 °C
CCCCC[C@H](O)CC[C@@H]1[C@H]2Cc3cccc(OCC(=O)O)c3C[C@H]2C[C@H]1O [Choline Salt] | degradation beyond 150 °C
CCCCC[C@H](O)CC[C@@H]1[C@H]2Cc3cccc(OCC(=O)O)c3C[C@H]2C[C@H]1O [L-Lysine Salt] | degradation beyond 200 °C
CCCCC[C@H](O)CC[C@@H]1[C@H]2Cc3cccc(OCC(=O)[O][MgH])c3C[C@H]2C[C@H]1O [Mg Salt] | degradation beyond 250 °C
CCCCC[C@H](O)CC[C@@H]1[C@H]2Cc3cccc(OCC(=O)O)c3C[C@H]2C[C@H]1O [N-Methylglucamine Salt] | degradation beyond 150 °C
CCCCC[C@H](O)CC[C@@H]1[C@H]2Cc3cccc(OCC(=O)[O-])c3C[C@H]2C[C@H]1O.[K+] [Potassium Salt] | degradation beyond 250 °C
